Results: patent US20220281886A1, “NATRIURETIC PEPTIDE RECEPTOR A AGONISTS USEFUL FOR THE TREATMENT OF CARDIOMETABOLIC DISEASES, KIDNEY DISEASE AND DIABETES” (Merck Sharp & Dohme Corp., priority 2019, published 2022)
pEC50: −log10 of the molar value.

Target: T1, hNPRA (Homo sapiens, UniProt P16066)
T1 construct: expressed in transfected cells
T1 sequence (P16066 33-1061): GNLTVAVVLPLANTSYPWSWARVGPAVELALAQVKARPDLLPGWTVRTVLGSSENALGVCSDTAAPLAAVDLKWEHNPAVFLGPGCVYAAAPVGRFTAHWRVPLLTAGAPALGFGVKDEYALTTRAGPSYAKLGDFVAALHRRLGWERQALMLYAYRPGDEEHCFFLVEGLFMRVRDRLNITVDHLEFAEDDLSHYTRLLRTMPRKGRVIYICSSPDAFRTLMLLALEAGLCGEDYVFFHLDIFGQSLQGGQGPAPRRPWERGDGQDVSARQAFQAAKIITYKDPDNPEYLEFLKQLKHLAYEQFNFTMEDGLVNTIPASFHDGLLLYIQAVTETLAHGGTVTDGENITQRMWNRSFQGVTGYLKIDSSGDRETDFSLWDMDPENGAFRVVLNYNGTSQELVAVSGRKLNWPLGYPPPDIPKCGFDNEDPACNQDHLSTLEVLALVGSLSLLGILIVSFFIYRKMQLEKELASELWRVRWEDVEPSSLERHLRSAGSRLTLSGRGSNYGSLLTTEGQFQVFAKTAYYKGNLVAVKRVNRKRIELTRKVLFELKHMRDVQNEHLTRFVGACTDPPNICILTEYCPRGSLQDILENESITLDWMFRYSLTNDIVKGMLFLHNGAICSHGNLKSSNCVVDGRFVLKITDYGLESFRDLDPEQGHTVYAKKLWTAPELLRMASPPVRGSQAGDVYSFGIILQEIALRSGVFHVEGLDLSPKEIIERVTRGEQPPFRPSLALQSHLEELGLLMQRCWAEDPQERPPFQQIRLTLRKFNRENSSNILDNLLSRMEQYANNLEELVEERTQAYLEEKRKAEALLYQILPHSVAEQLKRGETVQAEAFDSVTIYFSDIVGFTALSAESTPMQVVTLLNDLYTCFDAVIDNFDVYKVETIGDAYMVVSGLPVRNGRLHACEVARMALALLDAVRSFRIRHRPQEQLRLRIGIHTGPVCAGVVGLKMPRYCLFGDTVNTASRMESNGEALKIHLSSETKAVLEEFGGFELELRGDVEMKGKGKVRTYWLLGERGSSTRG
Assay: NPRA Functional Cell Assay (cGMP HTRF)
Format: cell-based
Details: Human NPRA HEK JumpIn stable cells; cGMP by HTRF after 1 hour at 37° C.; 10-point dose response
Source text: Assay Buffer components HEPES and Opti-MEM® I Reduced-Serum with Glutamine (no phenol red) were from Gibco/Invitrogen (Thermo Fisher Scientific, Waltham, Mass. USA). 3-Isobutyl-1-methylxanthine (IBMX) and 4-(3-Butoxy-4-methoxybenzyl)imidazolidin-2-one (RO20) were obtained from Sigma-Aldrich (St. Louis, Mo., USA). DPBS (Dulbecco's phosphate-buffered saline) without Ca2+ and Mg2+ was purchased from GE Healthcare Bio-Sciences (Pittsburgh, Pa., USA). 384 well white Optiplates were from Perkin Elmer (Atlantic Highlands, N.J., USA). Human ANP (Atrial Natriuretic Peptide) (1-28) was purchased from Sigma-Aldrich (Catalog #A1663) and rat ANP (1-28) from Bachem (Torrance, Calif., USA) (Catalog #H2100). Human-BNP (Human-Brain Natriuretic Peptide) (1-32 AA) was purchased from American Peptide Company (Sunnyvale, Calif., USA) (product No. 14-1-90). cGMP kits were purchased from Cisbio. The assay ready frozen (ARF) Human/rat/dog NPRA HEK JumpIn Stable frozen cells (low passage number 5-11) were prepared in-house.
Test compounds were titrated in DMSO in a 10-point dose response in a separate step followed by a 100-fold dilution into the reaction. Positive response for each assay was determined using 10 nM rat-ANP peptide (rat cells) or 50 nM h-ANP peptide (human and dog cells).
Cells were thawed, washed with DPBS and resuspended in assay buffer (Opti-MEM+Glutamine, phenol red free media, 10 mM HEPES, 100 uM IBMX and 100 uM RO20) that was warmed to 37° C. Cells were then transferred to microplates via a Microplate Combi dispenser at a density of 1500, 400 and 1200 cells/well for human, rat and dog cells respectively, followed by acoustic transfer (Echo) of compound.
(§1) Compounds and cells were incubated at 37° C. with 5% CO2 for 1 hour, after which the cells were lysed and cGMP was captured using a CisBio cGMP HTRF assay kit. The TRF signal was measured with an Envision plate reader (emission set to 615 and 665 nm) after 1 hour incubation at ambient temperature. The TRF signal was converted to [cGMP] through the use of a cGMP calibration curve on each microplate. EC50's were generated from the resulting dose response curves by use of a 4 parameter logistic algorithm.
Assay Buffer components HEPES and Opti-MEM® I Reduced-Serum with Glutamine (no phenol red) were from Gibco/Invitrogen. 3-Isobutyl-1-methylxanthine (IBMX) and 4-(3-Butoxy-4-methoxybenzyl)imidazolidin-2-one (RO20) were obtained from Sigma. DPBS (Dulbecco's phosphate-buffered saline) without Ca2+ and Mg2+ was purchased from GE Healthcare Bio-Sciences (Pittsburgh, Pa., USA). 384 well white Optiplates were from Perkin Elmer (Atlantic Highlands, N.J., USA). Human ANP (1-28) was purchased from Sigma (A1663) and rat ANP (1-28) from Bachem (H2100). Human-BNP (1-32 AA) was purchased from American Peptide Company (Sunnyvale, Calif., USA) (product No. 14-1-90). cGMP kits were purchased from Cisbio (Bedford, Mass., USA). The assay ready frozen (ARF) Human/rat/dog NPRA HEK JumpIn Stable frozen cells (low passage number 5-11) were prepared in-house.
as §1, with “Envision®” for “Envision”, “(Perkin Elmer)(emission” for “(emission”
hNPRA EC50 (nM) are were determined for the compounds of Example 1 through 273 and are reported in the Experimental section of this application.

Compound | pEC50
CC(C)[C@]1(F)CCc2nc3c(F)cc(C(=O)N[C@H](CCN4CCC5CCCCC5C4)c4ccc(-c5ccnnc5)nc4)cc3cc2C1 (mixture of isomers) [Example 42, rac-(7S)-4,7-difluoro-7-isopropyl-N-[rac-(1R)-3-(1,2,3,4,4a,5,6,7,8,8a-decahydroisoquinolin-2-ium-2-yl)-1-(6-pyridazin-4-yl-3-pyridyl)propyl]-6,8-dihydro-5H-acridine-2-carboxamide;2,2,2-trifluoroacetate] | 6.43
CC1CCCCN1CC[C@@H](NC(=O)c1cc(F)c2nc3c(cc2c1)C[C@](F)(C(C)C)CC3)c1ccc(-c2ccnnc2)nc1 (mixture of isomers) [Example 44, rac-(7S)-4,7-difluoro-7-isopropyl-N-[rac-(1R)-3-(2-methylpiperidin-1-ium-1-yl)-1-(6-pyridazin-4-yl-3-pyridyl)propyl]-6,8-dihydro-5H-acridine-2-carboxamide;2,2,2-trifluoroacetate] | 6.82
CC(C)[C@]1(F)CCc2nc3c(F)cc(C(=O)N[C@H](CCN4CCC(O)CC4)c4ccc(N5CC(=O)NC5=O)nc4)cc3cc2C1 [Example 28] | 6.49
CC(C)[C@]1(F)CCc2nc3c(F)cc(C(=O)N[C@H](CCN4CCC5(CC4)CC5CO)c4ccc(-c5ccnnc5)nc4)cc3cc2C1 (mixture of isomers) [Example 39, rac-(7S)-4,7-difluoro-7-isopropyl-N-[rac-(1R)-3-[2-(hydroxymethyl)-6-azoniaspiro[2.5]octan-6-yl]-1-(6-pyridazin-4-yl-3-pyridyl)propyl]-6,8-dihydro-5H-acridine-2-carboxamide;2,2,2-trifluoroacetate] | 6.59
C[Si](C)(C)[C@H]1CCc2nc3ccc(C(=O)N[C@H](CCN4CCC(O)CC4)c4ccc(N5CCOC5=O)cc4)cc3cc2C1 [Example 5, (7S)-N-{(1R)-3-(4-hydroxypiperidin-1-yl)-1-[4-(2-oxo-1,3-oxazolidin-3-yl)phenyl]propyl}-7-(trimethylsilyl)-5,6,7,8-tetrahydroacridine-2-carboxamide] | 5.70
CC(C)C1CCN(CC[C@@H](NC(=O)c2cc(F)c3nc4c(cc3c2)C[C@](F)(C(C)C)CC4)c2ccc(-c3ccnnc3)nc2)CC1 (racemic) [Example 56, rac-(7S)-4,7-difluoro-7-isopropyl-N-[rac-(1R)-3-(4-isopropyl-1-piperidyl)-1-(6-pyridazin-4-yl-3-pyridyl)propyl]-6,8-dihydro-5H-acridine-2-carboxamide] | 6.59
CC(C)[C@]1(F)CCc2nc3c(F)cc(C(=O)N[C@H](CCN4CC5CC(C4)C5(O)C(F)(F)F)c4ccc(-c5ccnnc5)nc4)cc3cc2C1 (stereo partly drawn) [Example 14, (7S)-4,7-difluoro-N-[(1R)-3-[6-hydroxy-6-(trifluoromethyl)-3-azabicyclo[3.1.1]hept-3-yl]-1-(6-pyridazin-4-ylpyridin-3-yl)propyl]-7-(1-methylethyl)-5,6,7,8-tetrahydroacridine-2-carboxamide] | 5.68
CN1CC(NC(=O)c2cccc([C@@H](CCN3CCC(CC(=O)O)CC3)NC(=O)c3ccc4nc5c(cc4c3)C[C@@H](C3(C)CC3)CC5)c2)C1 (racemic) [Example 66, 2-[1-[rac-(3R)-3-[3-[(1-methylazetidin-3-yl)carbamoyl]phenyl]-3-[[rac-(7S)-7-(1-methylcyclopropyl)-5,6,7,8-tetrahydroacridine-2-carbonyl]amino]propyl]-4-piperidyl]acetic acid] | 6.40
CC(C)[C@]1(F)CCc2nc3c(F)cc(C(=O)N[C@H](CCN4CCC5(O)CCCCC5C4)c4ccc(-c5ccnnc5)nc4)cc3cc2C1 (mixture of isomers) [Example 52, rac-(7S)-4,7-difluoro-7-isopropyl-N-[rac-(1R)-3-(4a-hydroxy-1,3,4,5,6,7,8,8a-octahydroisoquinolin-2-yl)-1-(6-pyridazin-4-yl-3-pyridyl)propyl]-6,8-dihydro-5H-acridine-2-carboxamide] | 6.59
O=C(N[C@H](CCN1CCC(O)CC1)c1ccc(N2CCOC2=O)cc1)c1ccc2nc3c(cc2c1)C[C@@H](C1(C(F)(F)F)CC1)CC3 [Example 4, (7S)-N-{(1R)-3-(4-hydroxypiperidin-1-yl)-1-[4-(2-oxo-1,3-oxazolidin-3-yl)phenyl]propyl}-7-[1-(trifluoromethyl)cyclopropyl]-5,6,7,8-tetrahydroacridine-2-carboxamide] | 5.65
CC(C)[C@]1(F)CCc2nc3c(F)cc(C(=O)N[C@H](CCN4CCC5(CCOC5)CC4)c4ccc(-c5ccnnc5)nc4)cc3cc2C1 (racemic) [Example 38, rac-(7S)-4,7-difluoro-7-isopropyl-N-[rac-(1R)-3-(2-oxa-8-azoniaspiro[4.5]decan-8-yl)-1-(6-pyridazin-4-yl-3-pyridyl)propyl]-6,8-dihydro-5H-acridine-2-carboxamide;2,2,2-trifluoroacetate] | 6.50
CC(C)[C@]1(F)CCc2nc3c(F)cc(C(=O)N[C@H](CCN4CCCOCC4)c4ccc(-c5ccnnc5)nc4)cc3cc2C1 (racemic) [Example 57, rac-(7S)-4,7-difluoro-7-isopropyl-N-[rac-(1R)-3-(1,4-oxazepan-4-yl)-1-(6-pyridazin-4-yl-3-pyridyl)propyl]-6,8-dihydro-5H-acridine-2-carboxamide] | 6.85
CC(C)[C@]1(F)CCc2nc3c(F)cc(C(=O)N[C@H](CCN4CCC5(CC[C@H](O)C5)CC4)c4ccc(-c5ccnnc5)nc4)cc3cc2C1 (racemic) [Example 48, rac-(7S)-4,7-difluoro-7-isopropyl-N-[rac-(1R)-1-(6-pyridazin-4-yl-3-pyridyl)-3-[rac-(3S)-3-hydroxy-8-azaspiro[4.5]decan-8-yl]propyl]-6,8-dihydro-5H-acridine-2-carboxamide] | 6.98
CC(C)[C@]1(F)CCc2nc3c(F)cc(C(=O)N[C@H](CCN4CCC(O)CC4)c4ccc(N5CC[C@@H](O)[C@H](F)C5)nc4)cc3cc2C1 [Example 33, (S)-4,7-difluoro-N-((R)-1-(6-((3R,4R)-3-fluoro-4-hydroxypiperidin-1-yl)pyridin-3-yl)-3-(4-hydroxypiperidin-1-yl)propyl)-7-isopropyl-5,6,7,8-tetrahydroacridine-2-carboxamide] | 6.06
